Reference: US20240036032A1, “PREDICTIVE IN VITRO ASSAY MIMICKING IN VIVO PHARMACOLOGY” (MIMI-Q GMBH, priority 2020, published 2024)
Like-named read-outs stand apart in the source and are kept apart here. Marks after values point to notes of the source that are not given here. Blank lines part the entries; values can stand above or below the compound they belong to.

How the values were obtained:
[1] = Clinical pharmacokinetics parameters of mFOLFOX6 active substances from published data; assay type: in vivo, Humans; conditions: 5-fluorouracil bolus, sequence number 2, calculated to a dose of 400 mg/m^2 assuming linear kinetics
Protocol: Pharmacokinetics parameters for all substances presented in Table 3 were identified based on published data. Substances of administration 1 (Oxaliplatin) and 2 (5-Fluorouracil) present simultaneously in the body, so time point of addition of 2 (5-Fluorouracil) was selected in a timeframe of selected incubation time for 1 (Oxaliplatin). Substances of administration 2 (5-Fluorouracil) and 3 (5-Fluorouracil) also present simultaneously in the body, so time point of addition of 3 (5-Fluorouracil) was selected in a timeframe of selected duration of exposure for 2 (5-Fluorouracil).

[2] = tested on: colon cancer organoids; experiment: Half growth inhibitory concentration (GI50): serial dilutions, 72 hours, MTS assay; assay type: cell-based, human (patient)
Protocol: A patient was diagnosed with colon cancer and mFOLFOX6 chemotherapeutic treatment was prescribed. To obtain primary organoid culture of colon cancer cells a sample of resected lung metastasis was used. Tissue was cut into small fragments and placed immediately into MACS tissue storage solution (Miltenyi Biotec, Germany) and stored for no more than 24 hours at 4° C. Then, the tissue fragments were transferred to a tube for tissue homogenization gentleMACS C Tube (Miltenyi Biotec, Germany) and enzyme cocktail from Tumor Dissociation Kit human (Miltenyi Biotec, Germany) consisting of 2.2 ml of DMEM/F-12 culture medium (Thermo Fisher Scientific, USA), 100 μl of Enzyme H solution (Miltenyi Biotec, Germany), 50 μl of Enzyme R solution (Miltenyi Biotec, Germany) and 12.5 μl of Enzyme A solution (Miltenyi Biotec, Germany) was added to the same tube. Then the tube was tightly closed with a lid and placed in gentleMACS Octo Dissociator (Miltenyi Biotec, Germany). For tissue dissociation, the “37C_h_TDK_3” program was used. […]
Organoids were diluted in Matrigel Growth Factor Reduced (GFR) Basement Membrane Matrix (Corning, USA) and seeded into 96-well plate (TPP, Switzerland). […] Relative number of cells was measured with MTS assay CellTiter 96 Aqueous One Solution Cell Proliferation Assay kit (Promega, USA) according to the manufacturer's instructions (FIG. 2). […]

[3] = cited from earlier work
[4] = NCI Database; cited from earlier work
[5] = tested on: chemo-resistant metastatic CRC; conditions: absence of genetic selection; cited from earlier work
[6] = 5-fluorouracil continuous infusion, sequence number 3
[7] = oxaliplatin infusion, mFOLFOX6, sequence number 1

Area under curve [1]: 82.1* μM·
Cmax ([1]; human, in vivo, intravenous, 400 mg/m2): 273 µM
sensitivity of organoids judged from GI50 ([2]; Example 3, FIG. 3b): sensitive
GI50 ([2]; Homo sapiens, Example 3, organoids from resected lung metastasis, 72 hours incubation): 2260 nM
Compound: O=c1[nH]cc(F)c(=O)[nH]1 [5-Fluorouracil, 5-fluorouracil]
Area under curve [3, 6]: 156.4 µM
Cmax [3, 6]: 5.5 µM

Compound: Nc1nc2c(c(=O)[nH]1)N(C=O)C(CNc1ccc(C(=O)N[C@@H](CCC(=O)O)C(=O)O)cc1)CN2 (stereo partly shown) [Leucovorin, Leucovorin Calcium (Folinic Acid)]
direct cytotoxic or cytostatic effect [4]: does not possess direct cytotoxic or cytostatic effect

Compound: O=C1[O][Pt]2([NH][C@@H]3CCCC[C@H]3[NH]2)[O]C1=O [Oxaliplatin]
Area under curve [3, 7]: 6.8 µM
Cmax [3, 7]: 3.6 µM

Compound: panitumumab: anti-EGFR therapy drug
patients responding to anti-EGFR therapy [5]: 10%
